Read-outs that look alike come from different tables or passages of the source. Marks after values point to notes of the source that are not given here.
Columns and labels:
rats = conditions: rat, in vivo; cited from earlier work
Salmonella strains = conditions: up to 5000 µg/plate with or without metabolic activation ref 4; cited from earlier work
CHO-K1 cells [1] = test: Cytotoxicity, cell viability (resazurin assay), CHO-K1, with or without S9 mix; conditions: 1 day
[2] = set-up: method as in earlier work; conditions: human volunteers, cited from earlier work
androgen receptor = test: Androgenic activity, transactivation luciferase assay in MDA-kb2; conditions: 1 nm–100 µM, MDA-kb2
Text: Results were expressed as fold induction (FI), i.e. fold increase compared to vehicle control. According to EPA[28], FI of positive control should be above 4 to meet the performance standard.

NF-κB signal pathway = NF-κB signal pathway activation, luciferase reporter in transfected HEK293; assay type: cell-based, human; conditions: HEK293, 100 µM (Table 1), 5 h
Text: […]. HEK293 cells were transiently transfected with reporter plasmid pGL4.32 (luc2P/NF-κB-RE/Hygro, Promega Corporation, Madison, Wisconsin, USA) or pGL4.37 (luc2P/NRF2-ARE/Hygro) using FuGENE (Promega Corporation). Plasmid pEGFP-C1 carrying the gene for green fluorescent protein (GFP) was co-transfected with the reporter plasmids as a normalization plasmid enabling normalization of the signal to transfection level. […] To test the activation of NRF2-ARE pathway, tert-butyl hydroquinone (TBHQ, in the range from 4 to 63 µM) as a positive control or samples (50 µM) were incubated with the cells for 18 h. The fluorescence (488/513 nm) was determined using SpectraMax i3x Multi-Mode Microplate Reader (Molecular Devices, San Jose, California, USA). Subsequent quantification of luciferase activity was performed using the Bright-Glo™ Luciferase Assay System (Promega Corporation) according to the manufacturer’s instructions.

dogs = conditions: dog, in vivo; cited from earlier work
CHO-K1 cells [3] = assay type: cell-based, Chinese hamster; conditions: for MoA (mean fluorescence values over area of the nuclei): lilial 100 µM, PC 30 μM
Method: Briefly, HeLa and CHO-K1 cells were seeded at a concentration of 1 × 10^5 cells/ml into the 96-well plates. CHO-K1 cells were used for comparison with HPRT test. HeLa cells were recommended by the manufacturer of the kit. After 24 h, cells were rinsed with PBS and cultivation medium (“Cell lines” Section) without ATB, with a reduced content of FBS (5%) was added. 30 µM valinomycin (in DMSO) was used as a positive control Samples were applied in the presence of non-toxic sample concentrations, i.e. 100 µM either with or without S9 mix. […] Cells were photographed using a fluorescence microscope (Olympus IX83); filters: DAPI (500 ms) and Cy3 (500 ms). Bioimage analysis in ImageJ software was performed as described previously.

[4] = Intestinal absorption, Caco-2 intestinal barrier model in vitro; assay type: in vitro ADME, human; conditions: human
Caco-2 cells = test: as above; assay type: in vitro ADME, human; conditions: lilial 1 mM, 4 h
[5] = test system: Chinese hamster lung and human colonic epithelial cells; set-up: method as in PMID 32461162, PMID 24239523; conditions: in vitro ref 3, 5; cited from earlier work
HepG2 cells = conditions: HepG2, 100 µM ref 2; cited from earlier work
[6] = Cytotoxicity, cell viability (resazurin assay), HeLa9903; assay type: cell-based, human; conditions: human, HeLa9903 cells, all concentrations up to 100 µM, vs vehicle control, read-out: Relative viability
HeLa9903 cells = test: as above; assay type: cell-based, human; conditions: 1 nm–100 µM, 1 day
[7] = test system: complexes I and II of the electron transport chain; conditions: cited from earlier work
Hek293 cells = conditions: Hek293 ref 2; cited from earlier work
MCF7 cells = conditions: MCF7 ref 2; cited from earlier work
NIH3T3 cells = conditions: NIH3T3 ref 2; cited from earlier work
NRF2-ARE signal pathway = NRF2-ARE signal pathway activation, luciferase reporter in transfected HEK293; assay type: cell-based, human; conditions: HEK293, 100 µM (Table 1), 18 h
Text: […]. HEK293 cells were transiently transfected with reporter plasmid pGL4.32 (luc2P/NF-κB-RE/Hygro, Promega Corporation, Madison, Wisconsin, USA) or pGL4.37 (luc2P/NRF2-ARE/Hygro) using FuGENE (Promega Corporation). Plasmid pEGFP-C1 carrying the gene for green fluorescent protein (GFP) was co-transfected with the reporter plasmids as a normalization plasmid enabling normalization of the signal to transfection level. To test the activation of NF-κB pathway, TNFα (in the range from 13 to 200 pg/ml) as a positive control or samples (50 µM) were incubated with the cells for 5 h. […] The fluorescence (488/513 nm) was determined using SpectraMax i3x Multi-Mode Microplate Reader (Molecular Devices, San Jose, California, USA). Subsequent quantification of luciferase activity was performed using the Bright-Glo™ Luciferase Assay System (Promega Corporation) according to the manufacturer’s instructions.

[8] = set-up: method as in earlier work; conditions: rat, 1% p-BMHCA in ethanol, 120 µg substance/cm^2, 16 h ref 4; cited from earlier work
[9] = test system: ARE-Nrf2 luciferase (KeratinoSens); set-up: method as in PMID 23576290; conditions: cited from earlier work
[10] = Metabolic activation with rat liver S9, GC/HRMS; assay type: in vitro ADME; conditions: 37 °C, 1 h; to lysmerylic acid and p-tert-butylbenzoic acid as major metabolites
Text: Metabolic activation was verified using GC/HRMS as described above.

SMILES: CC(C=O)Cc1ccc(C(C)(C)C)cc1 (stereo not shown) [Lilial, 3-(4-(tert-butyl)phenyl)-2-methylpropanal]
- Oral dose that reduced body weight, gave clinical and systemic toxicity (rats): ≥ 50 mg/kg/day
- Mutagenic activity, Ames test (Salmonella strains): increased number of revertant colonies were detected only for the Salmonella strain TA1535, but it was not reproducible
- Toxic concentration (CHO-K1 cells [1]; 5 nm–500 µM, without S9): ≥ 250 µM
- Cytotoxicity result after metabolization by the S9 mix (CHO-K1 cells [1]; up to 500 µM, with S9 mix): no cytotoxicity
- Mean of applied dose detected in urine ([2]; dermal 6 h, urine within 24 h ref 4): 1.4%
- Topical application recovery ([2]; dermal 6 h ref 4): 71 ± 10%
- Androgenic activity (agonist) result (androgen receptor): Non active up to 100 µM
- Androgenic activity (agonist) result (androgen receptor; listed as lilial): no activity was detected
- NF-κB signal pathway activation result (NF-κB signal pathway): Non activator
- NF-κB signal pathway activation result (NF-κB signal pathway; listed as lilial): neither the NF-kB (Fig. 7) nor NRF2 (Fig. 8) signalling pathway was activated
- Oral dose that reduced body weight, gave clinical and systemic toxicity (dogs): ≥ 200 mg/kg/day
- Genotoxicity result (CHO-K1 cells [3]; CHO-K1, 100 µM): Inconclusive
- MoA (mean fluorescence values over area of the nuclei) (CHO-K1 cells [3]; CHO-K1, 4h_S9): 1.10*
- MoA (mean fluorescence values over area of the nuclei) (CHO-K1 cells [3]; CHO-K1, 4 h, without S9): 0.52
- MoA (mean fluorescence values over area of the nuclei) (CHO-K1 cells [3]; CHO-K1, 24 h): 0.99
- recovery at 4 h, 1 mM ([4]; Caco-2, lilial 1 mM, 4 h, all compartments): ~80%
- Papp at 4 h, 1 mM ([4]; Caco-2, read-out: Papp (apparent permeability coefficient)): 21 ×10⁻⁶ cm/s
- Lilial (%) in Caco-2 cells (Caco-2 cells): 13.1 ± 5.2%
- Lilial (%) in apical medium (Caco-2 cells): 32.3 ± 2.0%
- Lilial (%) in basolateral medium (Caco-2 cells): 34.1 ± 3.4%
- Recovery (Caco-2 cells; all compartments): 79.5%
- Mutagenicity in mammalian cell gene mutation assay [5]: not mutagenic
- Decrease in cell viability (HepG2 cells): 23%
- viability at 1 day [6]: > 80%
- Cytotoxicity result (HeLa9903 cells): Non toxic up to 100 µM
- Effect on complexes I and II of the electron transport chain [7]: inhibit complexes I and II
- Effect on cell viability (Hek293 cells): no negative effect
- Effect on cell viability (MCF7 cells): no negative effect
- Effect on cell viability (NIH3T3 cells): no negative effect
- NRF2-ARE signal pathway activation result (NRF2-ARE signal pathway): Non activator
- NRF2-ARE signal pathway activation result (NRF2-ARE signal pathway; listed as lilial): neither the NF-kB (Fig. 7) nor NRF2 (Fig. 8) signalling pathway was activated
- In vitro dermal absorption [8]: 78.4%
- KeratinoSens assay result [9]: negative
- Metabolism in presence of Arochlor-induced rat liver S9 fractions [10]: almost completely metabolised
